Experiment: Inhibition of [3H]spiperone binding to Dopamine receptor D3 in bovine cortex

O=C1CC2(CCCC2)CC(=O)N1CCCCN1CCN(c2ncccn2)CC1 [BUSPAR]
Ki: 660 nM

Reference: BindingDB's records for doi:10.1021/jm950759z (Cooperation Pharmaceutique Fran?aise, 1997)
